Here are results for two molecules from patent publication US20250360087A1, “COMPOSITIONS COMPRISING LIPID DROPLETS ENCAPSULATED WITHIN POLYSACCHARIDE WALLS AND USES THEREOF” (UNIVERSITY OF SOUTH AUSTRALIA, priority 2022, published 2025).

For one data set, the system named is S. aureus ATCC 25923. The data set is described as follows: Minimum inhibitory concentration of rifampicin in S. aureus. It is filed as cell-based. As to conditions: Staphylococcus aureus, ATCC25923; 24 h, 37° C., turbidity; read-out: MIC, concentration required to inhibit growth.
The next data set relates to S. aureus biofilms. Description: In vitro biofilm study, crystal violet assay. Type of data set: cell-based, Staphylococcus aureus. The method, then: Bacterial suspension was further diluted 1/15 with broth and subsequently added to the wells of a 96-well plate. The outer wells were filled with PBS (200 μL) for hydration purposes and the second right column contained sterile broth (100 μL) to serve as negative control. The plate was wrapped in aluminium foil and incubated on a 3D rotating platform at 70 rpm at 37° C. for 24 h to grow biofilms. After 24 h incubation, turbid biofilms sitting at the bottom of wells could be assessed visually. The broth in the wells of the plate was aspired gently by a vacuum pump without disturbing the biofilms and the wells were washed with 0.9% Saline (100 μL) twice to remove nonadherent bacteria. […] The plate was wrapped in aluminium foil and incubated on a 3D rotating platform at 70 rpm at 37° C. for 24 h. After 24 h of exposure to the formulations, supernatants were removed gently without disturbing the biofilms by a vacuum pump and the wells were washed with 0.9% Saline (100 μL) twice. Biofilms were fixed by oven heating at 60° C. for 1 h. […] The biofilm biomass of S. aureus was quantified by spectrometry at 595 nm in 96 well plate reader.

The next data set concerns RAW 264.7 macrophages. The data set is described as follows: Cellular cytotoxicity, MTT assay. Type of data set: cell-based, Murine. To be noted: after 1 h incubation.

Method for RAW 264.7 macrophages: 100 μL of cell suspension at a density of 7000 cells per well was seeded in 96-well plate and incubated (37° C., 5% CO2) for 12 h to allow the attachment of cells. After incubation the supernatant was discarded and replaced with 200 μL of particle solution (in DMEM) at various concentrations (ranging from 10 to 100 μg/mL) and incubated for further 24 h. After incubation, the cells were washed with sterile PBS and 10 μL of MTT (3-(4,5-dimethylthiazol-2-yl)-2,5-diphenyltetrazolium bromide) solvent was added to each well prior to incubation for a further 4 h. Afterward, the supernatant was discarded, and the absorbance was read at OD=540 nm using a microplate reader.
Method for S. aureus ATCC 25923: Single colonies of S. aureus ATCC 25923 were suspended in 0.9% sterile saline to reach approximately 1×10^8 colony forming units (CFU)/mL (equivalent to an optical density of 0.08-0.12 at 600 nm). The bacterial suspension was further diluted 1/100 with broth. Bacterial suspension was added to 96-wells. […] The 96-well plate was incubated at 37° C. for 24 h. The plates were visually assessed for turbidity indicating growth of bacteria.

As to `CO[C@H]1/C=C/O[C@@]2(C)Oc3c(C)c(O)c4c(O)c(c(/C=N/N5CCN(C)CC5)c(O)c4c3C2=O)NC(=O)/C(C)=C\C=C\[C@H](C)[C@H](O)[C@@H](C)[C@@H](O)[C@@H](C)[C@H](OC(C)=O)[C@@H]1C` [rifampicin], the MIC in the data set with S. aureus ATCC 25923 is < 0.0156 µg/mL. Also, the biofilm biomass remaining in the data set with S. aureus biofilms (exposure to 1 μg/mL of rifampicin) worked out at 34%. Also, the “reduction in biofilm biomass” value with S. aureus biofilms (rifampicin 16 μg/mL, 24 h) is “up to 82%”. The biofilm reduction entry with S. aureus biofilms (rifampicin 1 to 16 μg/mL, 24 h) is “more than 50%”.

As for Triton-X, in the data set with RAW 264.7 macrophages, the “cellular viability (positive control)” value was “no cellular viability”.
